Results from US11046689B2, “Selective estrogen receptor down-regulators” (AstraZeneca AB, priority 2017, dated 2021).

Biological target: Estrogen Receptor (ER) in MCF-7 cells (Homo sapiens (Human), UniProt P03372)
Assay: MCF-7 ER down-regulation assay (immuno-fluorescence)
Format: cell-based
Conditions: stated where not >90%

Chain of Estrogen Receptor (ER) in MCF-7 cells (P03372 whole entry): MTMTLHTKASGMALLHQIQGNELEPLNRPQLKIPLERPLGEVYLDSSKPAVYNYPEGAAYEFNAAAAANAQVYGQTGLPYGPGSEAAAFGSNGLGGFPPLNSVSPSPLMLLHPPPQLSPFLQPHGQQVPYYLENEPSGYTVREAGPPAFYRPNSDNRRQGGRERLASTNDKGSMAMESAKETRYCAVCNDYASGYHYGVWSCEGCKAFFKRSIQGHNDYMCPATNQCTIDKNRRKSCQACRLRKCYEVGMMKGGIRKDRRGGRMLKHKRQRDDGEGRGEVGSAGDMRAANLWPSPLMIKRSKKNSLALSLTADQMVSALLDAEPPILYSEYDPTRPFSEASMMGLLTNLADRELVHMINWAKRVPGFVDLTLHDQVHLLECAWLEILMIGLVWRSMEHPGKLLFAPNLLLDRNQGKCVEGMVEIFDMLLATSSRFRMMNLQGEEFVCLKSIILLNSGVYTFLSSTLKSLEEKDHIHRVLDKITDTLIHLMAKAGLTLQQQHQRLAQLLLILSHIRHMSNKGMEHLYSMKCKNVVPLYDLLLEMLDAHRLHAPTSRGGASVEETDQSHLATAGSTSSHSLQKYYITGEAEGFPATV

% downregulation (shown in brackets)	Compound
86%	Cc1c(OCCN(C)CCCF)ccc(F)c1[C@@H]1c2[nH]c3ccccc3c2C[C@@H](C(F)(F)F)N1C[C@H](C)C(=O)O [Example 149, (S)-3-((1R,3S)-1-(6-fluoro-3-(2-((3-fluoropropyl)(methyl)amino)ethoxy)-2-methylphenyl)-3-(trifluoro-methyl)-1,3,4,9-tetrahydro-2H-pyrido[3,4-b]indol-2-yl)-2-methyl-propanoic acid]
90%	COc1ccc(OCCNCCCF)c(F)c1[C@@H]1c2[nH]c3ccccc3c2C[C@@H](C)N1CC1(F)CC1 [Example 83, 3-fluoro-N-(2-(2-fluoro-3-((1R,3R)-2-((1-fluorocyclo-propyl)methyl)-3-methyl-2,3,4,9-tetrahydro-1H-pyrido[3,4-b]indol-1-yl)-4-methoxy-phenoxy)ethyl)propan-1-amine]
85%	Cc1c(OCCNCCCF)ccc(F)c1[C@@H]1c2[nH]c3ccccc3c2CC(C)(C)N1C[C@H](C)C(=O)O [Example 134, (S)-3-((R)-1 (6-fluoro-3-(2-((3-fluoro-propyl)amino)ethoxy)-2-methylphenyl)-3,3-dimethyl-1,3,4,9-tetrahydro-2H-pyrido[3,4-b]indol-2-yl)-2-methyl-propanoic acid]
68%	C[C@@H]1Cc2c([nH]c3ccccc23)[C@@H](c2c(F)ccc(OCCN(C)CCCF)c2C(F)F)N1C[C@H](C)C(=O)O [Example 148, (S)-3-((1R,3R)-1-(2-(difluoro-methyl)-6-fluoro-3-(2-((3-fluoro-propyl)(methyl)amino)ethoxy)phenyl)-3-methyl-1,3,4,9-tetrahydro-2H-pyrido[3,4-b]indol-2-yl)-2-methyl-propanoic acid]
88%	C[C@@H]1Cc2c([nH]c3ccccc23)[C@@H](c2c(F)ccc(OCCN(C)CCCF)c2F)N1C[C@H](C)C(=O)O [Example 144]
−(40%)	COc1ccc(OCCNCCCF)cc1[C@@H]1c2[nH]c3ccccc3c2C[C@@H](C)N1C[C@H](C)C(=O)O [Example 53, (S)-3-((1R,3R)-1-(5-(2-((3-fluoropropyl)amino)ethoxy)-2-methoxy-phenyl)-3-methyl-1,3,4,9-tetrahydro-2H-pyrido[3,4-b]indol-2-yl)-2-methyl-propanoic acid]

Second part, the compound before the results:

Compound	% downregulation (shown in brackets)
COc1ccc(OC[C@@H](C)NCCCF)cc1[C@@H]1c2[nH]c3ccccc3c2C[C@@H](C)N1CC(F)(F)CO [Example 50, 2,2-difluoro-3-((1R,3R)-1-(5-((R)-2-((3-fluoropropyl)amino)propoxy)-2-methoxyphenyl)-3-methyl-1,3,4,9-tetrahydro-2H-pyrido[3,4-b]indol-2-yl)propan-1-ol]	81%
COc1ccc(OCCNCCCF)c(F)c1[C@@H]1c2[nH]c3ccccc3c2C[C@@H](C)N1CC1(F)COC1 [Example 84, 3-fluoro-N-(2-(2-fluoro-3-((1R,3R)-2-((3-fluorooxetan-3-yl)methyl)-3-methyl-2,3,4,9-tetrahydro-1H-pyrido[3,4-b]indol-1-yl)-4-methoxy-phenoxy)ethyl)propan-1-amine]	83%
COCc1ccc(OCCNCCCF)cc1[C@@H]1c2[nH]c3ccccc3c2C[C@@H](C)N1CC(F)(F)F [Example 71, 3-fluoro-N-(2-(4-(methoxy-methyl)-3-((1R,3R)-3-methyl-2-(2,2,2-trifluoroethyl)-2,3,4,9-tetrahydro-1H-pyrido[3,4-b]indol-1-yl)phenoxy)ethyl)propan-1-amine]	90%
C[C@@H]1Cc2c([nH]c3ccccc23)[C@@H](c2cccc(OCCNCCCF)n2)N1CC(F)(F)F [Example 34, 3-fluoro-N-(2-((6-((1S,3R)-3-methyl-2-(2,2,2-trifluoroethyl)-2,3,4,9-tetrahydro-1H-pyrido[3,4-b]indol-1-yl)pyridin-2-yl)oxy)ethyl)propan-1-amine]	−(41%)
COc1ccc(O[C@H](C)CNCCCF)cc1[C@@H]1c2[nH]c3ccccc3c2C[C@@H](C)N1CC(F)(F)CO [Example 47, 2,2-difluoro-3-((1R,3R)-1-(5-(((R)-1-((3-fluoropropyl)amino)propan-2-yl)oxy)-2-methoxyphenyl)-3-methyl-1,3,4,9-tetrahydro-2H-pyrido[3,4-b]indol-2-yl)propan-1-ol]	81%
C[C@@H]1Cc2c([nH]c3ccccc23)[C@@H](c2c(F)ccc(OCCN(C)CCCF)c2F)N1CC1(F)COC1 [Example 154, N-(2-(2,4-difluoro-3-((1R,3R)-2-((3-fluorooxetan-3-yl)methyl)-3-methyl-2,3,4,9-tetrahydro-1H-pyrido[3,4-b]indol-1-yl)phenoxy)ethyl)-3-fluoro-N-methyl-propan-1-amine]	79%
